Reference: PubChem BioAssay (NCI)
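In this assay, cells in 96-well plates receive the compound at five concentrations for 48 hours. Endpoints are linearly interpolated between the surrounding concentrations. TGI is the concentration that stops growth completely.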

How the values were obtained:
Assay in all cases: NCI tumour cell line growth inhibition, 48 h
HCT-116 colon = system: HCT-116 colon
HL-60(TB) leukemia = system: HL-60(TB) leukemia
ACHN renal = system: ACHN renal
IGROV1 ovarian = system: IGROV1 ovarian
RPMI-8226 leukemia = system: RPMI-8226 leukemia
M14 melanoma = system: M14 melanoma
SF-268 CNS = system: SF-268 CNS
HCC-2998 colon = system: HCC-2998 colon
MALME-3M melanoma = system: MALME-3M melanoma
A498 renal = system: A498 renal
NCI-H522 lung = system: NCI-H522 lung
SNB-19 CNS = system: SNB-19 CNS
CCRF-CEM leukemia = system: CCRF-CEM leukemia
K-562 leukemia = system: K-562 leukemia
T-47D breast = system: T-47D breast
MDA-MB-231 breast = system: MDA-MB-231 breast
OVCAR-4 ovarian = system: OVCAR-4 ovarian
RXF 393 renal = system: RXF 393 renal
SK-OV-3 ovarian = system: SK-OV-3 ovarian
SF-295 CNS = system: SF-295 CNS

Row | Structure (SMILES) | TGI (HCT-116 colon) [µM] | TGI (HL-60(TB) leukemia) [µM] | TGI (ACHN renal) [µM] | TGI (IGROV1 ovarian) [µM] | TGI (RPMI-8226 leukemia) [µM] | TGI (M14 melanoma) [µM] | TGI (SF-268 CNS) [µM] | TGI (HCC-2998 colon) [µM] | TGI (MALME-3M melanoma) [µM] | TGI (A498 renal) [µM] | TGI (NCI-H522 lung) [µM] | TGI (SNB-19 CNS) [µM] | TGI (CCRF-CEM leukemia) [µM] | TGI (K-562 leukemia) [µM] | TGI (T-47D breast) [µM] | TGI (MDA-MB-231 breast) [µM] | TGI (OVCAR-4 ovarian) [µM] | TGI (RXF 393 renal) [µM] | TGI (SK-OV-3 ovarian) [µM] | TGI (SF-295 CNS) [µM]
1 | CCCCCC(=O)CCCCCCCC(O)CC(=O)OCC (centres undefined) | > 100 | > 100 | > 100 | > 100 | > 100 | > 100 | > 100 | > 100 | > 100 | > 100 | > 100 | > 100 | > 100 | > 100 | > 100 | > 100 |  |  |  | 
2 | O=C(N[C@@H](c1ccccc1)[C@@H](O)C(=O)OCc1ccc([N+](=O)[O-])cc1)c1ccccc1 | > 100 |  | > 100 | > 100 |  |  | > 100 | > 100 | > 100 | > 100 | > 100 | > 100 | > 100 | > 100 | > 100 | > 100 | > 100 | > 100 | > 100 | 
3 | COC(=O)C1(C(=O)OC)C/C(C)=C(/C)SCCCS1 | > 100 |  | > 100 | > 100 |  | > 100 | > 100 | > 100 | > 100 |  | > 100 | > 100 | > 100 | > 100 | > 100 | > 100 | > 100 | > 100 | > 100 | > 100
4 | C#CC(C)(C)OC(=O)C(=[N+]=[N-])C(C)=O | > 10 | > 10 | > 10 | > 10 | > 10 | > 10 | > 10 | > 10 | > 10 | > 10 |  | > 10 | > 10 | > 10 | > 10 | > 10 |  | > 10 | > 10 | > 10
5 | Cc1ccccc1N/C(=C(/C(Cl)=C(Cl)Cl)[N+](=O)[O-])n1nnc2ccccc21 | > 100 |  | > 100 |  | > 100 | 64.9 | 30.8 | 35.8 | 27.9 | 40.4 |  | 46.8 | > 100 | > 100 | 58 | 58.1 | 34 |  | 40.7 | 28.8
6 | CC1C[C@]2(C)C(=NCCN)Nc3ccccc3[C@@H]2N(C)c2ccccc21 (some centres undefined) | 21 | 36 | 29.9 | 27.6 | 47.4 | 3.56 | 30.4 | 9.69 | 9.64 | 30.5 |  | 27.7 | 35 | 40.2 | 39.2 | 21.1 | 30.4 | 22.1 |  | 32
7 | C/C(=N/NC(=S)Nc1ccc(Cl)cc1)c1cccc(/C(C)=N\NC(=S)Nc2ccc(Cl)cc2)n1 | 22.4 |  | 40.3 | > 100 | 39.7 | 8.53 | 58.1 | > 100 | 36 | 79.5 | 27 | > 100 | > 100 | 45 | > 100 | 48.4 | > 100 | 27.1 | > 100 | 29.6
8 | CN(C)CC1CCC/C(=C\c2ccc(Cl)cc2)C1=O (centres undefined) | 3.55 |  | 7.04 | 8.62 | > 100 | 6.15 | 8.33 | 18.1 | 4.76 | 31.1 | 3.27 | 26.5 | 3.39 | 4.89 | 13.4 | 9.21 | 8.94 |  | 23.2 | 29.2
9 | O=S1(=O)Cc2ccc3c4c2-c2c(ccc5ccc(c-4c25)CS(=O)(=O)C3)C1 | > 100 | > 100 | > 100 | > 100 | > 100 | > 100 | > 100 | > 100 | > 100 | > 100 | > 100 | > 100 |  | > 100 | > 100 | > 100 | > 100 |  | > 100 | > 100
10 | COC(=O)[C@H](Cc1c[nH]c2ccccc12)NC(=O)c1ccc(CNC(=O)/C(C)=C/c2ccccc2)cc1 | > 100 |  | > 100 | > 100 | > 100 | 30.1 | > 100 | 73 | 25.6 | 64.2 | 62.8 | > 100 | > 100 | > 100 | 27.7 | 60.6 | > 100 | 7.78 | > 100 | > 100
11 | CN1C(=O)c2ccccc2OC12C=Cc1ccc(O)cc1O2 (centres undefined) | 81 | 58.5 | > 100 | > 100 | > 100 | 45.3 | > 100 | 50.8 |  | 53.4 | > 100 | > 100 | 72.8 | > 100 | 52.6 | 82.1 | 96.9 |  | 53.5 | > 100
12 | O=C(O)C1C2C=CC(C2)C1c1ccccc1 (centres undefined) | > 100 | > 100 | > 100 |  | > 100 | > 100 | > 100 | > 100 | > 100 | > 100 |  | > 100 | > 100 | > 100 | > 100 | > 100 |  | > 100 | > 100 | > 100
13 | COc1ccc2c(c1)nc1n2C(c2c(Cl)cccc2Cl)SC1 (centres undefined) | > 81.2 | > 22.7 | > 100 | > 100 | > 100 | > 43.7 | > 100 | > 86.8 | 14.5 | > 100 |  | > 92.7 | > 100 | > 100 | > 72.3 | > 100 | > 100 | > 70.3 | > 100 | > 70.4
14 | Cc1cc(C2CC(O)C(CO)O2)c(F)cc1F (centres undefined) | > 100 | > 100 | > 100 | > 100 |  | > 100 | > 100 | > 100 | > 100 | > 100 | > 100 | > 100 | > 100 | > 100 | > 100 | > 100 | > 100 | > 100 | > 100 | > 100
15 | Cc1nn(C(=O)Cc2ccccc2)c2c1C(c1ccc(Cl)cc1)SC(N)=N2 (centres undefined) | > 100 | > 100 | > 100 | > 100 | > 100 | > 100 | > 100 | > 100 | > 100 | > 100 | > 100 |  | > 100 | > 100 | > 100 | > 100 |  |  | > 100 | > 100
16 | COc1cc(N(CCC#N)CCC#N)ccc1/C(N=Nc1ccccc1C)=N\NC(=O)c1ccc(C)cc1 | > 100 | 23 |  | > 100 |  | > 100 | > 100 | > 100 | > 100 |  | > 100 | > 100 | 40.3 | > 100 | > 100 | > 100 | > 100 | > 100 | > 100 | > 100
17 | Cc1nn(C(=O)c2ccc(Cl)cc2)c2c1C(/C=C/c1ccccc1)SC(N)=N2 (centres undefined) | > 10 | > 10 | > 10 | > 10 | > 10 | > 10 | > 10 | > 10 | > 10 |  | > 10 | > 10 | > 10 | > 10 | > 10 | > 10 | > 10 | > 10 | > 10 | > 10
18 | CC(C)(C)OC(=O)NC(Cc1ccc(OC(C)(C)C)cc1)C(=O)N[C@H]1CCC[C@H]1C(=O)NC(Cc1ccccc1)C(=O)N1CCCC1C(N)=O (some centres undefined) | > 100 |  | > 100 | > 100 | > 100 | > 100 | > 100 | > 100 | > 100 | > 100 | > 100 | > 100 | > 100 | > 100 | > 100 | > 100 | > 100 | > 100 | > 100 | > 100
19 | O=C(c1cccs1)N(C(=O)N1CCN(c2ccccc2)CC1)S(=O)(=O)c1ccccc1 | 38.6 | 45 | 39.9 |  |  | 36 | 80.6 | > 100 | 42.1 | > 100 | 34.2 | 72.2 | > 100 | 80.5 | 40.4 | 51.6 | > 100 |  | > 100 | > 100
20 | Cc1cc(C)c(C[C@H]2COC(=O)[C@]2(O)Cc2c(C)cc(C)cc2C)c(C)c1 | 43 | 42.4 | 35.7 |  | 77.7 | 36.3 | 30 | 30.7 | 29.9 | 30.9 | 34.4 | 39.4 | > 100 | > 100 | 25.2 | 35.9 | 28.3 | 25.4 | 34.2 | 34.1
21 | O=C(O/C=C\OC1CCCC1(c1ccccc1)c1ccccc1)c1ccccc1 (centres undefined) | 6.52 | 4.68 | 13.9 | 9.37 | 6.44 | 9.08 | 14.1 | > 49.4 |  | 64.3 | 43 | 28.9 | 5.89 | > 36 | 7.42 | 6.17 | 9.8 | 15 | 30.5 | 34.9
22 | O=C1c2cccc3cccc(c23)C2NCCCN12 (centres undefined) | > 100 | > 100 | > 100 | > 100 |  | > 100 | > 100 | > 100 | > 100 | > 100 | 80.4 | > 100 | > 100 | > 100 | > 100 | > 100 | > 100 | > 100 | > 100 | > 100
23 | COc1ccc2[nH]c3c(c2c1)CC(=S)N1CCCC(CC3=O)C1 (centres undefined) | > 100 |  | > 100 | > 100 | > 100 | > 100 | > 100 | > 100 | > 100 | > 100 |  | > 100 | > 100 |  | > 100 | > 100 | > 100 | 81 | > 100 | > 100
24 | CC(=O)O[C@H]1CCC2[C@@H]3CCC4Nc5oncc5C[C@]4(C)C3CC[C@@]21C (some centres undefined) | > 10 | 4.58 | > 10 | > 10 | > 10 | > 10 | > 10 | > 10 | > 10 | > 10 |  | > 10 | > 10 | > 10 | > 10 | > 10 | > 10 | > 10 | > 10 | > 10
25 | Cn1c(=O)oc2cc(C(O)CN3CCN(Cc4ccccn4)CC3)c(Cl)cc21 (centres undefined) | > 100 | > 100 | > 100 | > 100 |  | > 100 | > 100 | > 100 | > 100 | > 100 | > 100 | > 100 | > 100 | > 100 | > 100 | > 100 | > 100 | > 100 | > 100 | > 100
